“And” between values parts separate entries of the source, which are not always exact repeats. Equal entries are not always repeated.
Experiments:
[1] = for vapor or sublimation pressure: Twin ebulliometer; for Triple point temperature: Adiabatic calorimetry
[2] = molar heat capacity at saturation pressure
[3] = Molar enthalpy of transition or fusion; conditions: Adiabatic calorimetry

C1CCC(C2CCCC2)C1 [1,1'-bicyclopentyl]
Conditions	Critical temperature [K]	mass density [kg/m3]	molar heat capacity	vapor or sublimation pressure [kPa]
[1], 384 K, Liquid	–	–	–	9.59
[1], 387.47 K, Liquid	–	–	–	10.89
[1], 390.95 K, Liquid	–	–	–	12.35
[1], 394.45 K, Liquid	–	–	–	13.96
[1], 397.96 K, Liquid	–	–	–	15.75
[1], 401.49 K, Liquid	–	–	–	17.74
[1], 405.02 K, Liquid	–	–	–	19.93
[1], 405.03 K, Liquid	–	–	–	19.93
[1], 412.15 K, Liquid	–	–	–	25.02
[1], 419.33 K, Liquid	–	–	–	31.18
[1], 426.57 K, Liquid	–	–	–	38.56
[1], 433.87 K, Liquid	–	–	–	47.38
[1], 441.22 K, Liquid	–	–	–	57.82
[1], 448.61 K, Liquid	–	–	–	70.12
[1], 456.08 K, Liquid	–	–	–	84.53
[1], 463.61 K, Liquid	–	–	–	101.33
[1], 471.19 K, Liquid	–	–	–	120.79
[1], 478.83 K, Liquid	–	–	–	143.25
[1], 486.53 K, Liquid	–	–	–	169.02
[1], 494.28 K, Liquid	–	–	–	198.49
[1], 502.09 K, Liquid	–	–	–	232.02
[1], 509.97 K, Liquid	–	–	–	270.02
[1], 662.5 K, Gas	–	114.4	–	–
[1], 682.8 K, Gas	–	171.2	–	–
[1], 685.1 K, Liquid	–	366	–	–
[1], 687.3 K, Liquid	–	347.2	–	–
[1], 689.6 K, Liquid	–	311	–	–
[1], 689.8 K, Gas	–	244.4	–	–
[1], Liquid, DTA	690	–	–	–
[2], 10 K, Crystal 3, Vacuum adiabatic calorimetry	–	–	2.73 J/K/mol	–
[2], 11.5 K, Crystal 3, Vacuum adiabatic calorimetry	–	–	4.08 J/K/mol	–
[2], 11.8 K, Crystal 3, Vacuum adiabatic calorimetry	–	–	4.35 J/K/mol	–
[2], 13.17 K, Crystal 3, Vacuum adiabatic calorimetry	–	–	5.8 J/K/mol	–
[2], 13.37 K, Crystal 3, Vacuum adiabatic calorimetry	–	–	6.03 J/K/mol	–
[2], 14.83 K, Crystal 3, Vacuum adiabatic calorimetry	–	–	7.75 J/K/mol	–
[2], 14.99 K, Crystal 3, Vacuum adiabatic calorimetry	–	–	7.95 J/K/mol	–
[2], 16.64 K, Crystal 3, Vacuum adiabatic calorimetry	–	–	10.09 J/K/mol	–
[2], 16.69 K, Crystal 3, Vacuum adiabatic calorimetry	–	–	10.19 J/K/mol	–
[2], 18.46 K, Crystal 3, Vacuum adiabatic calorimetry	–	–	12.62 J/K/mol	–
[2], 18.63 K, Crystal 3, Vacuum adiabatic calorimetry	–	–	12.87 J/K/mol	–
[2], 20 K, Crystal 3, Vacuum adiabatic calorimetry	–	–	14.82 J/K/mol	–
[2], 20.51 K, Crystal 3, Vacuum adiabatic calorimetry	–	–	15.56 J/K/mol	–
[2], 20.71 K, Crystal 3, Vacuum adiabatic calorimetry	–	–	15.86 J/K/mol	–
[2], 22.72 K, Crystal 3, Vacuum adiabatic calorimetry	–	–	18.82 J/K/mol	–
[2], 22.99 K, Crystal 3, Vacuum adiabatic calorimetry	–	–	19.31 J/K/mol	–
[2], 25.1 K, Crystal 3, Vacuum adiabatic calorimetry	–	–	22.6 J/K/mol	–
[2], 25.32 K, Crystal 3, Vacuum adiabatic calorimetry	–	–	22.88 J/K/mol	–
[2], 27.67 K, Crystal 3, Vacuum adiabatic calorimetry	–	–	26.42 J/K/mol	–
[2], 30 K, Crystal 3, Vacuum adiabatic calorimetry	–	–	29.89 J/K/mol	–
[2], 30.51 K, Crystal 3, Vacuum adiabatic calorimetry	–	–	30.65 J/K/mol	–
[2], 33.62 K, Crystal 3, Vacuum adiabatic calorimetry	–	–	35.24 J/K/mol	–
[2], 37.09 K, Crystal 3, Vacuum adiabatic calorimetry	–	–	40.13 J/K/mol	–
[2], 40 K, Crystal 3, Vacuum adiabatic calorimetry	–	–	44.07 J/K/mol	–
[2], 40.84 K, Crystal 3, Vacuum adiabatic calorimetry	–	–	45.17 J/K/mol	–
[2], 44.81 K, Crystal 3, Vacuum adiabatic calorimetry	–	–	49.8 J/K/mol	–
[2], 49.26 K, Crystal 3, Vacuum adiabatic calorimetry	–	–	55.04 J/K/mol	–
[2], 50 K, Crystal 3, Vacuum adiabatic calorimetry	–	–	55.91 J/K/mol	–
[2], 54.23 K, Crystal 3, Vacuum adiabatic calorimetry	–	–	60.6 J/K/mol	–
[2], 54.24 K, Crystal 3, Vacuum adiabatic calorimetry	–	–	60.62 J/K/mol	–
[2], 59.45 K, Crystal 3, Vacuum adiabatic calorimetry	–	–	65.6 J/K/mol	–
[2], 60 K, Crystal 3, Vacuum adiabatic calorimetry	–	–	66.15 J/K/mol	–
[2], 65.02 K, Crystal 3, Vacuum adiabatic calorimetry	–	–	70.77 J/K/mol	–
[2], 70 K, Crystal 3, Vacuum adiabatic calorimetry	–	–	74.88 J/K/mol	–
[2], 71.12 K, Crystal 3, Vacuum adiabatic calorimetry	–	–	75.75 J/K/mol	–
[2], 77.81 K, Crystal 3, Vacuum adiabatic calorimetry	–	–	80.69 J/K/mol	–
[2], 80 K, Crystal 3, Vacuum adiabatic calorimetry	–	–	82.21 J/K/mol	–
[2], 84.9 K, Crystal 3, Vacuum adiabatic calorimetry	–	–	85.44 J/K/mol	–
[2], 90 K, Crystal 3, Vacuum adiabatic calorimetry	–	–	88.7 J/K/mol	–
[2], 90.4 K, Crystal 3, Vacuum adiabatic calorimetry	–	–	88.97 J/K/mol	–
[2], 92.15 K, Crystal 3, Vacuum adiabatic calorimetry	–	–	90 J/K/mol	–
[2], 95.17 K, Crystal 3, Vacuum adiabatic calorimetry	–	–	91.72 J/K/mol	–
[2], 97.64 K, Crystal 3, Vacuum adiabatic calorimetry	–	–	93.21 J/K/mol	–
[2], 100 K, Crystal 3, Vacuum adiabatic calorimetry	–	–	94.56 J/K/mol	–
[2], 102.4 K, Crystal 3, Vacuum adiabatic calorimetry	–	–	95.85 J/K/mol	–
[2], 105.1 K, Crystal 3, Vacuum adiabatic calorimetry	–	–	97.46 J/K/mol	–
[2], 110 K, Crystal 3, Vacuum adiabatic calorimetry	–	–	100.28 J/K/mol	–
[2], 112.84 K, Crystal 3, Vacuum adiabatic calorimetry	–	–	102.05 J/K/mol	–
[2], 116.54 K, Crystal 3, Vacuum adiabatic calorimetry	–	–	104.26 J/K/mol	–
[2], 118.13 K, Crystal 3, Vacuum adiabatic calorimetry	–	–	105.18 J/K/mol	–
[2], 118.17 K, Crystal 3, Vacuum adiabatic calorimetry	–	–	105.56 J/K/mol	–
[2], 120 K, Crystal 3, Vacuum adiabatic calorimetry	–	–	106.6 J/K/mol	–
[2], 120.99 K, Crystal 3, Vacuum adiabatic calorimetry	–	–	107.39 J/K/mol	–
[2], 126.75 K, Crystal 3, Vacuum adiabatic calorimetry	–	–	111.08 J/K/mol	–
[2], 128.4 K, Crystal 1, Vacuum adiabatic calorimetry	–	–	115.78 J/K/mol	–
[2], 128.4 K, Crystal 3, Vacuum adiabatic calorimetry	–	–	112.23 J/K/mol	–
[2], 130 K, Crystal 1, Vacuum adiabatic calorimetry	–	–	116.49 J/K/mol	–
[2], 133.46 K, Crystal 2, Vacuum adiabatic calorimetry	–	–	118.05 J/K/mol	–
[2], 133.78 K, Crystal 2, Vacuum adiabatic calorimetry	–	–	118.67 J/K/mol	–
[2], 134.12 K, Crystal 2, Vacuum adiabatic calorimetry	–	–	118.41 J/K/mol	–
[2], 135.2 K, Crystal 2, Vacuum adiabatic calorimetry	–	–	118.41 J/K/mol	–
[2], 139.41 K, Crystal 2, Vacuum adiabatic calorimetry	–	–	121.01 J/K/mol	–
[2], 140 K, Crystal 1, Vacuum adiabatic calorimetry	–	–	121.32 J/K/mol	–
[2], 142.47 K, Crystal 2, Vacuum adiabatic calorimetry	–	–	122.75 J/K/mol	–
[2], 143.12 K, Crystal 2, Vacuum adiabatic calorimetry	–	–	122.93 J/K/mol	–
[2], 150 K, Crystal 1, Vacuum adiabatic calorimetry	–	–	126.87 J/K/mol	–
[2], 151.25 K, Crystal 2, Vacuum adiabatic calorimetry	–	–	127.64 J/K/mol	–
[2], 152.11 K, Crystal 2, Vacuum adiabatic calorimetry	–	–	128.17 J/K/mol	–
[2], 160 K, Crystal 1, Vacuum adiabatic calorimetry	–	–	133.12 J/K/mol	–
[2], 160.68 K, Crystal 2, Vacuum adiabatic calorimetry	–	–	133.74 J/K/mol	–
[2], 160.78 K, Crystal 2, Vacuum adiabatic calorimetry	–	–	133.46 J/K/mol	–
[2], 166.89 K, Crystal 2, Vacuum adiabatic calorimetry	–	–	138.79 J/K/mol	–
[2], 170 K, Crystal 1, Vacuum adiabatic calorimetry	–	–	140.08 J/K/mol	–
[2], 171.5 K, Crystal 1, Vacuum adiabatic calorimetry	–	–	141.19 J/K/mol and 136.32 J/K/mol	–
[2], 173.81 K, Crystal 1, Vacuum adiabatic calorimetry	–	–	137.58 J/K/mol	–
[2], 178.13 K, Crystal 1, Vacuum adiabatic calorimetry	–	–	139.77 J/K/mol	–
[2], 180 K, Crystal 1, Vacuum adiabatic calorimetry	–	–	141.36 J/K/mol	–
[2], 181.67 K, Crystal 1, Vacuum adiabatic calorimetry	–	–	142.75 J/K/mol	–
[2], 182.42 K, Crystal 1, Vacuum adiabatic calorimetry	–	–	143.41 J/K/mol	–
[2], 186.12 K, Crystal 1, Vacuum adiabatic calorimetry	–	–	145.42 J/K/mol	–
[2], 190 K, Crystal 1, Vacuum adiabatic calorimetry	–	–	148.08 J/K/mol	–
[2], 190.41 K, Crystal 1, Vacuum adiabatic calorimetry	–	–	148.06 J/K/mol	–
[2], 194.17 K, Crystal 1, Vacuum adiabatic calorimetry	–	–	151.17 J/K/mol	–
[2], 200 K, Crystal 1, Vacuum adiabatic calorimetry	–	–	155.66 J/K/mol	–
[2], 202.37 K, Crystal 1, Vacuum adiabatic calorimetry	–	–	157.69 J/K/mol	–
[2], 210 K, Crystal 1, Vacuum adiabatic calorimetry	–	–	164.11 J/K/mol	–
[2], 210.53 K, Crystal 1, Vacuum adiabatic calorimetry	–	–	164.59 J/K/mol	–
[2], 215.22 K, Crystal 1, Vacuum adiabatic calorimetry	–	–	168.8 J/K/mol	–
[2], 218.83 K, Crystal 1, Vacuum adiabatic calorimetry	–	–	172.67 J/K/mol	–
[2], 220 K, Crystal 1, Vacuum adiabatic calorimetry	–	–	173.41 J/K/mol	–
[2], 223.28 K, Crystal 1, Vacuum adiabatic calorimetry	–	–	177.54 J/K/mol	–
[2], 230 K, Crystal 1, Vacuum adiabatic calorimetry	–	–	183.54 J/K/mol	–
[2], 230.93 K, Crystal 1, Vacuum adiabatic calorimetry	–	–	187.18 J/K/mol	–
[2], 237.82 K, Crystal 1, Vacuum adiabatic calorimetry	–	–	192.05 J/K/mol	–
[2], 420 K, Liquid	–	–	312.05 J/K/mol	–
[2], 440 K, Liquid	–	–	324.49 J/K/mol	–
[2], 460 K, Liquid	–	–	336.88 J/K/mol	–
[2], 480 K, Liquid	–	–	349.1 J/K/mol	–
[2], 500 K, Liquid	–	–	361.07 J/K/mol	–
[2], 520 K, Liquid	–	–	372.68 J/K/mol	–
[2], 540 K, Liquid	–	–	383.83 J/K/mol	–
[2], 560 K, Liquid	–	–	394.48 J/K/mol	–
[2], 580 K, Liquid	–	–	404.71 J/K/mol	–
[2], 600 K, Liquid	–	–	414.76 J/K/mol	–

Conditions	Molar enthalpy of transition or fusion, Crystal 1 [kcal/mol]	Molar enthalpy of transition or fusion, Crystal 2 [kcal/mol]	Triple point temperature, Crystal 1 [K]	Triple point temperature, Crystal 2 [K]	Triple point temperature, Crystal 3 [K]
[1]	–	–	237.82	171.5	128.4
[3]	3.202	0.06142	–	–	–

[2], Liquid, Vacuum adiabatic calorimetry
Conditions	molar heat capacity [J/K/mol]
235.7 K	209.39
237.82 K	210.18
240 K	211.02
242.86 K	212.18
250 K	215.09
251.35 K	215.65
251.38 K	215.6
260 K	219.43
260.38 K	219.61
260.4 K	219.59
269.99 K	224.12
270 K	224.11
279.85 K	228.87
280 K	228.97
289.97 K	234.24
290 K	234.26
298.15 K	238.69
300 K	239.71
300.32 K	239.88
303.62 K	241.76
312.36 K	246.68
320 K	251.11
321.76 K	252.14
331.4 K	257.76
340 K	262.83
340.79 K	263.29
350.44 K	269.11
360 K	274.85
360.31 K	275.02
369.98 K	281.03
379.48 K	286.87
380 K	287.22
388.81 K	292.97
400 K	299.69

Source: the NIST ThermoML archive (doi:10.1016/j.jct.2004.04.003)
